Experimental data as given in ChEMBL document CHEMBL4004838, “Design and synthesis of novel phenyl -1, 4-beta-carboline-hybrid molecules as potential anticancer agents” (Eur J Med Chem, 2017).

Experiments:
Format in all cases: functional
Malme-3M = test: Growth inhibition of human MALME-3M cells assessed as cell growth at 10^-5 M incubated for 48 hrs by sulforhodamine B assay relative to control; details: read-out: Activity
HCT-116 = test: Growth inhibition of human HCT116 cells assessed as cell growth at 10^-5 M incubated for 48 hrs by sulforhodamine B assay relative to control; details: HCT-116, 48 h, read-out: Activity
A498 = test: Growth inhibition of human A498 cells assessed as cell growth at 10^-5 M incubated for 48 hrs by sulforhodamine B assay relative to control; details: A498, 48 h, read-out: Activity
NCI-H226 = test: Growth inhibition of human NCI-H226 cells assessed as cell growth at 10^-5 M incubated for 48 hrs by sulforhodamine B assay relative to control; details: NCI-H226, 48 h, read-out: Activity
HOP-92 = test: Growth inhibition of human HOP92 cells assessed as cell growth at 10^-5 M incubated for 48 hrs by sulforhodamine B assay relative to control; details: HOP-92, 48 h, read-out: Activity
HL-60(TB) = test: Growth inhibition of human HL-60(TB) cells assessed as cell growth at 10^-5 M incubated for 48 hrs by sulforhodamine B assay relative to control; details: HL-60, 48 h, read-out: Activity
ACHN = test: Growth inhibition of human ACHN cells assessed as cell growth at 10^-5 M incubated for 48 hrs by sulforhodamine B assay relative to control; details: read-out: Activity
786-0 = test: Growth inhibition of human 786-0 cells assessed as cell growth at 10^-5 M incubated for 48 hrs by sulforhodamine B assay relative to control; details: 786-0, 48 h, read-out: Activity
MCF7 = test: Growth inhibition of human MCF7 cells assessed as cell growth at 10^-5 M incubated for 48 hrs by sulforhodamine B assay relative to control; details: MCF7, 48 h, read-out: Activity
SK-MEL-2 = test: Growth inhibition of human SK-MEL-2 cells assessed as cell growth at 10^-5 M incubated for 48 hrs by sulforhodamine B assay relative to control; details: SK-MEL-2, 48 h, read-out: Activity
U-251 = test: Growth inhibition of human U251 cells assessed as cell growth at 10^-5 M incubated for 48 hrs by sulforhodamine B assay relative to control; details: U-251, 48 h, read-out: Activity
SF-539 = test: Growth inhibition of human SF539 cells assessed as cell growth at 10^-5 M incubated for 48 hrs by sulforhodamine B assay relative to control; details: SF-539, 48 h, read-out: Activity
MDA-MB-231 = test: Growth inhibition of human MDA-MB-231 cells assessed as cell growth at 10^-5 M incubated for 48 hrs by sulforhodamine B assay relative to control; details: MDA-MB-231, 48 h, read-out: Activity
HT-29 = test: Growth inhibition of human HT-29 cells assessed as cell growth at 10^-5 M incubated for 48 hrs by sulforhodamine B assay relative to control; details: HT-29, 48 h, read-out: Activity
SNB-19 = test: Growth inhibition of human SNB19 cells assessed as cell growth at 10^-5 M incubated for 48 hrs by sulforhodamine B assay relative to control; details: SNB-19, 48 h, read-out: Activity
K562 = test: Growth inhibition of human K562 cells assessed as cell growth at 10^-5 M incubated for 48 hrs by sulforhodamine B assay relative to control; details: K562, 48 h, read-out: Activity
TK-10 = test: Growth inhibition of human TK10 cells assessed as cell growth at 10^-5 M incubated for 48 hrs by sulforhodamine B assay relative to control; details: TK-10, 48 h, read-out: Activity
OVCAR-3 = test: Growth inhibition of human OVCAR3 cells assessed as cell growth at 10^-5 M incubated for 48 hrs by sulforhodamine B assay relative to control; details: OVCAR-3, 48 h, read-out: Activity
NCI-H460 = test: Growth inhibition of human NCI-H460 cells assessed as cell growth at 10^-5 M incubated for 48 hrs by sulforhodamine B assay relative to control; details: NCI-H460, 48 h, read-out: Activity
UACC-62 = test: Growth inhibition of human UACC62 cells assessed as cell growth at 10^-5 M incubated for 48 hrs by sulforhodamine B assay relative to control; details: UACC-62, 48 h, read-out: Activity
T47D = test: Growth inhibition of human T47D cells assessed as cell growth at 10^-5 M incubated for 48 hrs by sulforhodamine B assay relative to control; details: read-out: Activity
SF-295 = test: Growth inhibition of human SF295 cells assessed as cell growth at 10^-5 M incubated for 48 hrs by sulforhodamine B assay relative to control; details: SF-295, 48 h, read-out: Activity
PC-3 = test: Growth inhibition of human PC3 cells assessed as cell growth at 10^-5 M incubated for 48 hrs by sulforhodamine B assay relative to control; details: PC-3, 48 h, read-out: Activity
SK-OV-3 = test: Growth inhibition of human SKOV3 cells assessed as cell growth at 10^-5 M incubated for 48 hrs by sulforhodamine B assay relative to control; details: SK-OV-3, 48 h, read-out: Activity
MDA-MB-468 = test: Growth inhibition of human MDA-MB-468 cells assessed as cell growth at 10^-5 M incubated for 48 hrs by sulforhodamine B assay relative to control; details: MDA-MB-468, 48 h, read-out: Activity
M14 = test: Growth inhibition of human M14 cells assessed as cell growth at 10^-5 M incubated for 48 hrs by sulforhodamine B assay relative to control; details: M14, 48 h, read-out: Activity
OVCAR-5 = test: Growth inhibition of human OVCAR5 cells assessed as cell growth at 10^-5 M incubated for 48 hrs by sulforhodamine B assay relative to control; details: OVCAR-5, 48 h, read-out: Activity
EKVX = test: Growth inhibition of human EKVX cells assessed as cell growth at 10^-5 M incubated for 48 hrs by sulforhodamine B assay relative to control; details: read-out: Activity
HCC 2998 = test: Growth inhibition of human HCC2998 cells assessed as cell growth at 10^-5 M incubated for 48 hrs by sulforhodamine B assay relative to control; details: HCC 2998, 48 h, read-out: Activity
LOX IMVI = test: Growth inhibition of human LOXIMVI cells assessed as cell growth at 10^-5 M incubated for 48 hrs by sulforhodamine B assay relative to control; details: read-out: Activity
Hs-578T = test: Growth inhibition of human Hs 578T cells assessed as cell growth at 10^-5 M incubated for 48 hrs by sulforhodamine B assay relative to control; details: read-out: Activity
NCI/ADR-RES = test: Growth inhibition of human NCI-ADR-RES cells assessed as cell growth at 10^-5 M incubated for 48 hrs by sulforhodamine B assay relative to control; details: read-out: Activity
NCI-H522 = test: Growth inhibition of human NCI-H522 cells assessed as cell growth at 10^-5 M incubated for 48 hrs by sulforhodamine B assay relative to control; details: NCI-H522, 48 h, read-out: Activity

Row | Compound | growth at 10 µM (Malme-3M) [%] | growth at 10 µM (HCT-116) [%] | growth at 10 µM (A498) [%] | growth at 10 µM (NCI-H226) [%] | growth at 10 µM (HOP-92) [%] | growth at 10 µM (HL-60(TB)) [%] | growth at 10 µM (ACHN) [%] | growth at 10 µM (786-0) [%] | growth at 10 µM (MCF7) [%] | growth at 10 µM (SK-MEL-2) [%] | growth at 10 µM (U-251) [%] | growth at 10 µM (SF-539) [%] | growth at 10 µM (MDA-MB-231) [%] | growth at 10 µM (HT-29) [%] | growth at 10 µM (SNB-19) [%] | growth at 10 µM (K562) [%] | growth at 10 µM (TK-10) [%] | growth at 10 µM (OVCAR-3) [%] | growth at 10 µM (NCI-H460) [%] | growth at 10 µM (UACC-62) [%] | other results
1 | Cc1ccc(S(=O)(=O)N2CCc3c([nH]c4ccccc34)C2c2ccc(-c3nc4ccccc4[nH]3)cc2)cc1 (centres undefined) | 89.7 | 88.3 | 84.6 | 86.4 | 102 | 105 | 79.1 | 99.6 | 92.4 | 81.6 | 98 | 90.2 | 73.4 | 87.2 | 91.3 | 106 | 98 | 93.5 | 93 | 65 | growth at 10 µM (T47D): 89.1%; growth at 10 µM (SF-295): 91.9%; growth at 10 µM (PC-3): 84.2%; growth at 10 µM (SK-OV-3): 88.5%; growth at 10 µM (MDA-MB-468): 102%; growth at 10 µM (M14): 85.8%; growth at 10 µM (OVCAR-5): 78.7%; growth at 10 µM (EKVX): 87.4%; growth at 10 µM (HCC 2998): 102%; growth at 10 µM (LOX IMVI): 85.5%; growth at 10 µM (Hs-578T): 89.2%; growth at 10 µM (NCI/ADR-RES): 88.9%; growth at 10 µM (NCI-H522): 60.3%
2 | Cc1n[nH]c2c1C(c1ccc(C3NCCc4c3[nH]c3ccccc43)cc1)C(C#N)=C(N)O2 (centres undefined) | 77 | 76.5 | 67.1 | 87 | 88.8 | 101 | 83.5 | 97.4 | 78.8 | 86 | 87.5 | 92 | 77.6 | 91.7 | 94.2 | 74.3 | 101 | 96.6 | 91.8 | 57.8 | growth at 10 µM (T47D): 75.2%; growth at 10 µM (SF-295): 86.9%; growth at 10 µM (PC-3): 72.3%; growth at 10 µM (SK-OV-3): 92%; growth at 10 µM (MDA-MB-468): 92.7%; growth at 10 µM (M14): 86.7%; growth at 10 µM (OVCAR-5): 87.4%; growth at 10 µM (EKVX): 83.6%; growth at 10 µM (HCC 2998): 105%; growth at 10 µM (LOX IMVI): 80.6%; growth at 10 µM (Hs-578T): 87.7%; growth at 10 µM (NCI/ADR-RES): 96.3%; growth at 10 µM (NCI-H522): 81.8%
3 | O=Cc1ccc(C2NCCc3c2[nH]c2ccccc32)cc1 (centres undefined) | 100 | 78.4 | 86.4 | 78.2 | 87.2 | 89.4 | 95 | 104 | 91.9 | 94.8 | 95.3 | 103 | 72.1 | 98.9 | 100 | 102 | 115 | 99.7 | 100 | 81.2 | growth at 10 µM (T47D): 92.3%; growth at 10 µM (SF-295): 101%; growth at 10 µM (PC-3): 84.3%; growth at 10 µM (SK-OV-3): 88.2%; growth at 10 µM (MDA-MB-468): 88.7%; growth at 10 µM (M14): 89.5%; growth at 10 µM (OVCAR-5): 100%; growth at 10 µM (EKVX): 89.6%; growth at 10 µM (HCC 2998): 104%; growth at 10 µM (LOX IMVI): 88.6%; growth at 10 µM (Hs-578T): 90.5%; growth at 10 µM (NCI/ADR-RES): 107%; growth at 10 µM (NCI-H522): 88%
